According to patent US20220000111A1, “METHODS OF INCREASING ALMOND YIELD” (Valent U.S.A. LLC, priority 2020, published 2022):

Assays:
Type in all cases: in vivo
almond trees [1] = assay: Example 1: foliar AVG-HCl application to almond trees, 2018-2019, nutmeat yield and kernel doubling at harvest; conditions: for percentage of shells harvested that contained two nut kernels, Average / yield at harvest of almond nutmeat, Average: average of trials
Experimental: […] of AVG applications were performed over a 2-year period. Each set of applications included a set of untreated control (“UTC”) trees. For the two sets of applications performed during the 2018 calendar year AVG-HCl was applied to almond trees either between 10% and full bloom (i.e. bloom) or between 6-7 weeks following full bloom (i.e. post-bloom). For the three sets of applications performed during the 2019 calendar year an additional application was performed as follows: 3-4 weeks post-bloom in combination with 6-7 weeks post-bloom.

almond trees [2] = assay: Example 2: foliar AVG-HCl application at full bloom or after, nonpareil and carmel almonds; conditions: for % Kernel Doubling / Nutmeat Yield / Nuts/Tree: 124 g/Ha
Experimental: 2 sets of AVG applications were performed on 2 varieties of almonds, nonpareil and […]. For the two sets of applications performed AVG-HCl was applied to almond trees either at full bloom or after full bloom, specifically at 22, 26, 29 or 33 days after full bloom (“DAFB”).

almond trees [3] = assay: Example 3: foliar AVG-HCl application at full bloom or after, nonpareil and carmel almonds; conditions: for % Kernel Doubling / Nutmeat Yield / Nuts/Tree: 124 g/Ha
Experimental: 2 sets of AVG applications were performed on 2 varieties of almonds, nonpareil and […]. For the two sets of applications performed AVG-HCl was applied to almond trees either at full bloom or after full bloom, specifically 15, 22, 26, 32, 36 or 38 DAFB.

almond trees [4] = assay: Example 4: foliar AVG-HCl application to nonpareil almonds at Newman and Sutter, 2020; conditions: for percentage of shells harvested that contained two nut kernels / yield at harvest of almond nutmeat: nonpareil, 124 g/Ha
Experimental: 2 sets of AVG applications were performed on nonpareil almonds at Newman, Calif. and Sutter, Calif. in 2020. Each set of applications included a set of untreated control (“UTC”) trees. AVG-HCl was applied to almond trees either at 50% bloom (i.e. bloom), shuck split, or 7 days following shuck split.

[5] = 3-4 weeks Post-bloom & 6-7 weeks Post-bloom, 2 apps, 62 g/Ha each
[6] = 3-4 weeks Post-bloom & 6-7 weeks Post-bloom, 2 apps, 62 g/Ha each, trial 2019-1
[7] = 3-4 weeks Post-bloom & 6-7 weeks Post-bloom, 2 apps, 62 g/Ha each, trial 2019-2
[8] = 3-4 weeks Post-bloom & 6-7 weeks Post-bloom, 2 apps, 62 g/Ha each, trial 2019-3
[9] = 6-7 weeks Post-bloom, 1 app, 124 g/Ha
[10] = 6-7 weeks Post-bloom, 1 app, 124 g/Ha, trial 2018-1 (second column)
[11] = 6-7 weeks Post-bloom, 1 app, 124 g/Ha, trial 2019-1
[12] = 6-7 weeks Post-bloom, 1 app, 124 g/Ha, trial 2019-2
[13] = 6-7 weeks Post-bloom, 1 app, 124 g/Ha, trial 2019-3
[14] = Bloom, 1 app, 124 g/Ha, trial 2018-1 (second column)
[15] = Bloom, 1 app, 124 g/Ha, trial 2019-1
[16] = Bloom, 1 app, 124 g/Ha, trial 2019-2
[17] = Bloom, 1 app, 124 g/Ha, trial 2019-3
[18] = Newman, 7-days post shuck split
[19] = Sutter, 7-days post shuck split

Cl.NCCO/C=C/[C@H](N)C(=O)O [AVG-HCl]
percentage of shells harvested that contained two nut kernels, Average (almond trees [1]; [5]): 1.55 b %
yield at harvest of almond nutmeat, Average (almond trees [1]; [5]): 1229 a kilograms per hectare
percentage of shells harvested that contained two nut kernels (almond trees [1]; [6]): 1.3 b %
yield at harvest of almond nutmeat (almond trees [1]; [6]): 1164 kilograms per hectare
percentage of shells harvested that contained two nut kernels (almond trees [1]; [7]): 1.5 abc %
yield at harvest of almond nutmeat (almond trees [1]; [7]): 1698 a kilograms per hectare
percentage of shells harvested that contained two nut kernels (almond trees [1]; [8]): 1.9 b %
yield at harvest of almond nutmeat (almond trees [1]; [8]): 825 b kilograms per hectare
percentage of shells harvested that contained two nut kernels, Average (almond trees [1]; [9]): 2.11 b %
yield at harvest of almond nutmeat, Average (almond trees [1]; [9]): 1033 ab kilograms per hectare
yield at harvest of almond nutmeat (almond trees [1]; 6-7 weeks Post-bloom, 1 app, 124 g/Ha, trial 2018-1 (first column)): 721 kilograms per hectare
percentage of shells harvested that contained two nut kernels (almond trees [1]; [10]): 6.6 b %
yield at harvest of almond nutmeat (almond trees [1]; [10]): 1345 a kilograms per hectare
percentage of shells harvested that contained two nut kernels (almond trees [1]; [11]): 2.5 ab %
yield at harvest of almond nutmeat (almond trees [1]; [11]): 1168 kilograms per hectare
percentage of shells harvested that contained two nut kernels (almond trees [1]; [12]): 1.08 bc %
yield at harvest of almond nutmeat (almond trees [1]; [12]): 1220 b kilograms per hectare
percentage of shells harvested that contained two nut kernels (almond trees [1]; [13]): 0.7 bc %
yield at harvest of almond nutmeat (almond trees [1]; [13]): 713 bc kilograms per hectare
percentage of shells harvested that contained two nut kernels, Average (almond trees [1]; Bloom, 1 app, 124 g/Ha): 8.62 a %
yield at harvest of almond nutmeat, Average (almond trees [1]; Bloom, 1 app, 124 g/Ha): 1068 ab kilograms per hectare
yield at harvest of almond nutmeat (almond trees [1]; Bloom, 1 app, 124 g/Ha, trial 2018-1 (first column)): 712 kilograms per hectare
percentage of shells harvested that contained two nut kernels (almond trees [1]; [14]): 27.7 a %
yield at harvest of almond nutmeat (almond trees [1]; [14]): 1148 b kilograms per hectare
percentage of shells harvested that contained two nut kernels (almond trees [1]; [15]): 3.5 a %
yield at harvest of almond nutmeat (almond trees [1]; [15]): 1204 kilograms per hectare
percentage of shells harvested that contained two nut kernels (almond trees [1]; [16]): 2.92 ab %
yield at harvest of almond nutmeat (almond trees [1]; [16]): 1198 b kilograms per hectare
percentage of shells harvested that contained two nut kernels (almond trees [1]; [17]): 15.9 a %
yield at harvest of almond nutmeat (almond trees [1]; [17]): 1031 a kilograms per hectare
% Kernel Doubling (almond trees [2]; carmel, 22 DAFB): 5.6 bc %
Nutmeat Yield (almond trees [2]; carmel, 22 DAFB): 7.94 kg/tree
Nuts/Tree (almond trees [2]; carmel, 22 DAFB): 8499 b nuts per tree
% Kernel Doubling (almond trees [2]; carmel, 26 DAFB): 3.7 c %
Nutmeat Yield (almond trees [2]; carmel, 26 DAFB): 8.50 kg/tree
Nuts/Tree (almond trees [2]; carmel, 26 DAFB): 9676 a nuts per tree
% Kernel Doubling (almond trees [2]; carmel, Full Bloom): 7.6 a %
Nutmeat Yield (almond trees [2]; carmel, Full Bloom): 7.04 kg/tree
Nuts/Tree (almond trees [2]; carmel, Full Bloom): 7039 b nuts per tree
% Kernel Doubling (almond trees [2]; nonpareil, 29 DAFB): 1.4 b %
Nutmeat Yield (almond trees [2]; nonpareil, 29 DAFB): 8.64 a kg/tree
Nuts/Tree (almond trees [2]; nonpareil, 29 DAFB): 8435 a nuts per tree
% Kernel Doubling (almond trees [2]; nonpareil, 33 DAFB): 0.4 b %
Nutmeat Yield (almond trees [2]; nonpareil, 33 DAFB): 7.89 ab kg/tree
Nuts/Tree (almond trees [2]; nonpareil, 33 DAFB): 8350 a nuts per tree
% Kernel Doubling (almond trees [2]; nonpareil, Full Bloom): 3.8 a %
Nutmeat Yield (almond trees [2]; nonpareil, Full Bloom): 8.03 ab kg/tree
Nuts/Tree (almond trees [2]; nonpareil, Full Bloom): 8153 ab nuts per tree
% Kernel Doubling (almond trees [3]; carmel, 15 DAFB): 0.4 b %
Nutmeat Yield (almond trees [3]; carmel, 15 DAFB): 6.00 kg/tree
Nuts/Tree (almond trees [3]; carmel, 15 DAFB): 7271 nuts per tree
% Kernel Doubling (almond trees [3]; carmel, 22 DAFB): 1.4 b %
Nutmeat Yield (almond trees [3]; carmel, 22 DAFB): 5.40 kg/tree
Nuts/Tree (almond trees [3]; carmel, 22 DAFB): 7427 nuts per tree
% Kernel Doubling (almond trees [3]; carmel, 32 DAFB): 0.6 b %
Nutmeat Yield (almond trees [3]; carmel, 32 DAFB): 5.30 kg/tree
Nuts/Tree (almond trees [3]; carmel, 32 DAFB): 6972 nuts per tree
% Kernel Doubling (almond trees [3]; carmel, 38 DAFB): 1 b %
Nutmeat Yield (almond trees [3]; carmel, 38 DAFB): 7.00 kg/tree
Nuts/Tree (almond trees [3]; carmel, 38 DAFB): 8875 nuts per tree
% Kernel Doubling (almond trees [3]; carmel, Full Bloom): 8.4 a %
Nutmeat Yield (almond trees [3]; carmel, Full Bloom): 6.10 kg/tree
Nuts/Tree (almond trees [3]; carmel, Full Bloom): 7097 nuts per tree
% Kernel Doubling (almond trees [3]; nonpareil, 26 DAFB): 0.8 b %
Nutmeat Yield (almond trees [3]; nonpareil, 26 DAFB): 5.9 kg/tree
Nuts/Tree (almond trees [3]; nonpareil, 26 DAFB): 7636.8 nuts per tree
% Kernel Doubling (almond trees [3]; nonpareil, 36 DAFB): 0.6 c %
Nutmeat Yield (almond trees [3]; nonpareil, 36 DAFB): 6 kg/tree
Nuts/Tree (almond trees [3]; nonpareil, 36 DAFB): 7789.8 nuts per tree
% Kernel Doubling (almond trees [3]; nonpareil, Full Bloom): 2.0 a %
Nutmeat Yield (almond trees [3]; nonpareil, Full Bloom): 4.3 kg/tree
Nuts/Tree (almond trees [3]; nonpareil, Full Bloom): 5251.6 nuts per tree
percentage of shells harvested that contained two nut kernels (almond trees [4]; [18]): 3.0%
yield at harvest of almond nutmeat (almond trees [4]; [18]): 3726 a kilograms per hectare
percentage of shells harvested that contained two nut kernels (almond trees [4]; Newman, Bloom (50% bloom)): 2.7%
yield at harvest of almond nutmeat (almond trees [4]; Newman, Bloom (50% bloom)): 3188 c kilograms per hectare
percentage of shells harvested that contained two nut kernels (almond trees [4]; Newman, Shuck split): 2.2%
yield at harvest of almond nutmeat (almond trees [4]; Newman, Shuck split): 3369 b kilograms per hectare
percentage of shells harvested that contained two nut kernels (almond trees [4]; [19]): 0.5%
yield at harvest of almond nutmeat (almond trees [4]; [19]): 3558 ab kilograms per hectare
percentage of shells harvested that contained two nut kernels (almond trees [4]; Sutter, Bloom (50% bloom)): 1.2%
yield at harvest of almond nutmeat (almond trees [4]; Sutter, Bloom (50% bloom)): 3658 a kilograms per hectare
percentage of shells harvested that contained two nut kernels (almond trees [4]; Sutter, Shuck split): 0.7%
yield at harvest of almond nutmeat (almond trees [4]; Sutter, Shuck split): 3758 a kilograms per hectare

NCCO/C=C/[C@H](N)C(=O)O (stereo in doubt) [AVG, [S]-trans-2-amino-4-(2-aminoethoxy)-3-butenoic acid]
kernel doubling, in words (almond trees [1]; application during bloom (Table 2)): statistically significant increase in kernel doubling
nutmeat yield, in words (almond trees [1]; application during bloom, versus untreated control (Table 1)): increases nutmeat yield over untreated control
kernel doubling, in words (almond trees [1]; application post-bloom (Table 2)): did not result in a statistically significant increase in kernel doubling
nutmeat yield, in words (almond trees [1]; application post-bloom, versus bloom treatment (Table 1)): greater increase in nutmeat yield than that obtained when treating during bloom
nutmeat yield, in words (almond trees [2]; application during bloom or following full bloom, nonpareil and carmel (Tables 3 and 4)): increases nutmeat yield
kernel doubling, in words (almond trees [2]; application during bloom, nonpareil and carmel (Tables 3 and 4)): statistically significant increase in kernel doubling
kernel doubling, in words (almond trees [2]; application post-bloom, nonpareil and carmel (Tables 3 and 4)): did not result in a statistically significant increase in kernel doubling
nutmeat yield, in words (almond trees [3]; application during bloom or following full bloom, nonpareil and carmel (Tables 5 and 6)): increases nutmeat yield
kernel doubling, in words (almond trees [3]; application during bloom, nonpareil and carmel (Tables 5 and 6)): statistically significant increase in kernel doubling
kernel doubling, in words (almond trees [3]; application post-bloom, nonpareil and carmel (Tables 5 and 6)): did not result in a statistically significant increase in kernel doubling
nutmeat yield, in words (almond trees [4]; application during bloom, versus untreated control (Table 7)): increases nutmeat yield over untreated control
kernel doubling, in words (almond trees [4]; application during bloom, Sutter, Calif. trial (Table 8)): statistically significant increase in kernel doubling
kernel doubling, in words (almond trees [4]; application post-bloom (Table 8)): did not result in a statistically significant increase in kernel doubling
nutmeat yield, in words (almond trees [4]; application post-bloom, versus bloom treatment (Table 7)): greater increase in nutmeat yield than that obtained when treating during bloom
